Data: PMC4385830, “Group I Paks as therapeutic targets in NF2-deficient meningioma” (Oncotarget, 2015)

Experiments:
Assay in all cases: Kinase selectivity, Z'-LYTE
Type in all cases: biochemical
[1] = target: T1, ZAP70 (Homo sapiens, UniProt P43403)
T1 construct: purchased Invitrogen (Life Technologies) SelectScreen Z'-LYTE
T1 sequence (P43403 1-619): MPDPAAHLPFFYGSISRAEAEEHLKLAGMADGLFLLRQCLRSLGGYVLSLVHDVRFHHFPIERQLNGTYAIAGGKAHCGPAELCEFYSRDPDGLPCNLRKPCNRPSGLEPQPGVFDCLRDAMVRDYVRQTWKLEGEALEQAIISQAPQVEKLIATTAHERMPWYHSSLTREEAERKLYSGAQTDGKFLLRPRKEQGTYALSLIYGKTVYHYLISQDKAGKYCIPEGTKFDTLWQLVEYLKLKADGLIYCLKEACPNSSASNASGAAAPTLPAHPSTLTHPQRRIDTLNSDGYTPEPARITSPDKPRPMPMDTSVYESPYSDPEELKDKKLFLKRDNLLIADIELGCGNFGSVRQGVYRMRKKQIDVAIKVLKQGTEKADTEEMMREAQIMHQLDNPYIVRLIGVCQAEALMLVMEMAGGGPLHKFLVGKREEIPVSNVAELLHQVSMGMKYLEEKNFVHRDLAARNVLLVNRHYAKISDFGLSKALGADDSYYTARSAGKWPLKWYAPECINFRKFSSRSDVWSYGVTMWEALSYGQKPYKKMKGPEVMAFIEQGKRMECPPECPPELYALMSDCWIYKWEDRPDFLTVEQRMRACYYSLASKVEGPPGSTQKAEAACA
How it was run: (§1)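 Each recombinant kinase phosphorylates a peptide substrate under conditions optimized for that enzyme. A protease then cleaves only non-phosphorylated peptide, and the fluorescence change reports kinase activity.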

[2] = target: T2, P1K3CA (p110 gamma) (Homo sapiens, UniProt P48736)
T2 construct: purchased Invitrogen (Life Technologies) SelectScreen Z'-LYTE
T2 sequence (P48736 whole entry): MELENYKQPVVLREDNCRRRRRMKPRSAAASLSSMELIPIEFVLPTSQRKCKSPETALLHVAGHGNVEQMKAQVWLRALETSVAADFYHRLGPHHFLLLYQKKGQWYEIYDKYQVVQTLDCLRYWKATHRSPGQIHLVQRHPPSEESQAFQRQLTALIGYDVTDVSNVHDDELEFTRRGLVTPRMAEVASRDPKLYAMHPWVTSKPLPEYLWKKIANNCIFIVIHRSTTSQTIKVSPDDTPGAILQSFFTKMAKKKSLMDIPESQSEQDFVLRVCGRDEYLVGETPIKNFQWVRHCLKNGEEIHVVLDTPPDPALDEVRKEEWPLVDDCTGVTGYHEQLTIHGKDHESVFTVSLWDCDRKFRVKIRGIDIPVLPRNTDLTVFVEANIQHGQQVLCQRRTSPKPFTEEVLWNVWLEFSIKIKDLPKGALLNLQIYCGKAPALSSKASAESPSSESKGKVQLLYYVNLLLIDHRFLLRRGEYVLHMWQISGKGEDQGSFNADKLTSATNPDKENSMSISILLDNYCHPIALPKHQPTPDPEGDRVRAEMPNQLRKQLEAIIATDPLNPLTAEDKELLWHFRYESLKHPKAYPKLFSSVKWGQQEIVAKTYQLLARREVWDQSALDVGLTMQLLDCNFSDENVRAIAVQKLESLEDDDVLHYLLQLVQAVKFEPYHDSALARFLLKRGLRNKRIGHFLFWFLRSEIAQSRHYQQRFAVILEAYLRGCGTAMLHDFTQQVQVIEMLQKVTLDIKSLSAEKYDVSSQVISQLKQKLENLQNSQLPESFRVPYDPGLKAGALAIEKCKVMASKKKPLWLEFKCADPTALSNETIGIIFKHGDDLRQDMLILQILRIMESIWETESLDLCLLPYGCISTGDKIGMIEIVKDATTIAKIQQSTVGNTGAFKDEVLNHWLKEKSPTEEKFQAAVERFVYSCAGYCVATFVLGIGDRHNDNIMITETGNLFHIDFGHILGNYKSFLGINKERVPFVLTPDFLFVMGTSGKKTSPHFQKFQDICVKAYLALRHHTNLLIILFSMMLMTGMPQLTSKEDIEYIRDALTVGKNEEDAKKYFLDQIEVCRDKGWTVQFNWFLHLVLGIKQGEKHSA
How it was run: as §1

[3] = target: T3, CHEK2 (CHK2) (Homo sapiens, UniProt O96017)
T3 construct: purchased Invitrogen (Life Technologies) SelectScreen Z'-LYTE
T3 sequence (O96017 whole entry): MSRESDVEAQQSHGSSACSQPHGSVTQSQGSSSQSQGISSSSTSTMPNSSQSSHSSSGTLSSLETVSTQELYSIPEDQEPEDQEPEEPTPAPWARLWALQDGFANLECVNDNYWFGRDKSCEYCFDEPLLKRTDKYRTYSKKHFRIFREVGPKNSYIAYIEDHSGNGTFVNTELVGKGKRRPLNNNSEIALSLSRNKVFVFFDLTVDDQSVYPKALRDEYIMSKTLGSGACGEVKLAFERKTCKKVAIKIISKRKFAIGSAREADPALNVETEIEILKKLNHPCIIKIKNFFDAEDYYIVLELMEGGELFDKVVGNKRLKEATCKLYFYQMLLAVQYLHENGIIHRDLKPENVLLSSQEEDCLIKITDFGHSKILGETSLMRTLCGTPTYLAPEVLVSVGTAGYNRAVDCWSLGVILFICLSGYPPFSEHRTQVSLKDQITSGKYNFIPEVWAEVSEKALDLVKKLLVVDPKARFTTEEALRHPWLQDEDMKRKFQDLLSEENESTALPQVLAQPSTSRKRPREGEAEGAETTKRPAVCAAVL
How it was run: as §1

[4] = target: T4, P1K3C2B (P13K-C2-beta) (Homo sapiens, UniProt O00750)
T4 construct: purchased Invitrogen (Life Technologies) SelectScreen Z'-LYTE
T4 sequence (O00750 whole entry, stated change not applied): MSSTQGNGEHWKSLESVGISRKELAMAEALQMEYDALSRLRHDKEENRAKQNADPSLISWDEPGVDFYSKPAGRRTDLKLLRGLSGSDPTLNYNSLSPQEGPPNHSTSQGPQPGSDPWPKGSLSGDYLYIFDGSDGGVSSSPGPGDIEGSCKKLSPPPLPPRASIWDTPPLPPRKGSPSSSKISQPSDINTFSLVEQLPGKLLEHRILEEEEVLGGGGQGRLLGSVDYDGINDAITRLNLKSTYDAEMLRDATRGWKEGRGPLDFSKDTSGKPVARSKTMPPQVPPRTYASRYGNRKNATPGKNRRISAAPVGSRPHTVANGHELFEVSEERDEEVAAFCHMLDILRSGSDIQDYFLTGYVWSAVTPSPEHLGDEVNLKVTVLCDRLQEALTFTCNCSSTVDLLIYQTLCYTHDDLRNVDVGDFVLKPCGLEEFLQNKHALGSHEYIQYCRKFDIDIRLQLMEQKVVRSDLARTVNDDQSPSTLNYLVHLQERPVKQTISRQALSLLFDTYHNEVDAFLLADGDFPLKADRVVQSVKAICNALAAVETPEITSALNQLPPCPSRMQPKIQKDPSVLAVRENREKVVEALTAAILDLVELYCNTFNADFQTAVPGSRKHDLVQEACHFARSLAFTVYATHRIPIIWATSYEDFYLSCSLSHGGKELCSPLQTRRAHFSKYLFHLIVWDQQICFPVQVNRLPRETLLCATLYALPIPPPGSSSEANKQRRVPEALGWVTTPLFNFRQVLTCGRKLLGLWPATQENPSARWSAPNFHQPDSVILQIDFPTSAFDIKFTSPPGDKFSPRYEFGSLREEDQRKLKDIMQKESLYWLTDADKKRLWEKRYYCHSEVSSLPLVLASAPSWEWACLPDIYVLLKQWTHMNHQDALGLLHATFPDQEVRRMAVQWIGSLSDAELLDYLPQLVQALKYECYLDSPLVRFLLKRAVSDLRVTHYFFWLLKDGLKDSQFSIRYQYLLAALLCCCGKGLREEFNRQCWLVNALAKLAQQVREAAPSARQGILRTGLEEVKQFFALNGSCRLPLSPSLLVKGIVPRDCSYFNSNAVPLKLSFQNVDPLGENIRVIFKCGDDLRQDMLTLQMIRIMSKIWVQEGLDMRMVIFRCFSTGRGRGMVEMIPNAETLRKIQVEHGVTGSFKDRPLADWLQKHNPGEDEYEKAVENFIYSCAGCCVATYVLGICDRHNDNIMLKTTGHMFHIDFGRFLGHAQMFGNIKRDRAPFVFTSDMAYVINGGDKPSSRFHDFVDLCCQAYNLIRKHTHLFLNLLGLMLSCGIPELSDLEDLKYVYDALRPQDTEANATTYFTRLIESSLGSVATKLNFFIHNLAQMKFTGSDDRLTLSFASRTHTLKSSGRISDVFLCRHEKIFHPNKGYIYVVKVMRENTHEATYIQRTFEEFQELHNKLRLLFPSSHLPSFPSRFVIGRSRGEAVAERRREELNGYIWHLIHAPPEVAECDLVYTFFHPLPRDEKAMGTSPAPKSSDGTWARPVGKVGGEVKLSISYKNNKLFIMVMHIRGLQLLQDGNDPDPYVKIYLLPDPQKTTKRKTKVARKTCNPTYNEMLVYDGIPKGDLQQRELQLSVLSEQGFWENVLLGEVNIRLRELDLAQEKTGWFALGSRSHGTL
How it was run: as §1

[5] = target: T5, CSF1R (FMS) (Homo sapiens, UniProt P07333)
T5 construct: purchased Invitrogen (Life Technologies) SelectScreen Z'-LYTE
T5 sequence (P07333 20-972): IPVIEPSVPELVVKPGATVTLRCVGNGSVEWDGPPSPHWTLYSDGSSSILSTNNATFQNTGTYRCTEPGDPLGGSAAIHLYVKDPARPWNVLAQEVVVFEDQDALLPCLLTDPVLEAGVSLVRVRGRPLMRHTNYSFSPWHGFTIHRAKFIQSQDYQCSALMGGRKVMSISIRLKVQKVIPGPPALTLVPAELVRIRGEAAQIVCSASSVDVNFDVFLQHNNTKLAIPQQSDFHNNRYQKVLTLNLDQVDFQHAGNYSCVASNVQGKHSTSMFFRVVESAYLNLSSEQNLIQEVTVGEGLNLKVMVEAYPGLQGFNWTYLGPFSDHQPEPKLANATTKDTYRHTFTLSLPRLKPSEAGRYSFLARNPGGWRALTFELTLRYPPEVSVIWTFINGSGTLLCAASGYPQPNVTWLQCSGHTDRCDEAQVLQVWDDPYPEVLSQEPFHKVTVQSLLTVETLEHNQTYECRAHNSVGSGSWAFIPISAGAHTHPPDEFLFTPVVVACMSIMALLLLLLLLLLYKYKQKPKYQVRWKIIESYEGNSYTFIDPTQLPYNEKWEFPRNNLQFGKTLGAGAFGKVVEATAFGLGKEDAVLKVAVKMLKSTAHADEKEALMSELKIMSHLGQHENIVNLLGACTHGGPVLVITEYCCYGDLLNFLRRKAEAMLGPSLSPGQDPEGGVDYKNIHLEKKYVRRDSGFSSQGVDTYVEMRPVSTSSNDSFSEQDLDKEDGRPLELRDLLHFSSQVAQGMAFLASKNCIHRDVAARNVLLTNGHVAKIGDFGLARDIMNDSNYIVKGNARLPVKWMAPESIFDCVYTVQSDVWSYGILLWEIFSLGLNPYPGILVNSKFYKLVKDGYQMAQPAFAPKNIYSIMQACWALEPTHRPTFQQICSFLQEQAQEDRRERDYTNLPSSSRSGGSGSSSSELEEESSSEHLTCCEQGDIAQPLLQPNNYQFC
How it was run: as §1

[6] = target: T6, PIM2 (Homo sapiens, UniProt Q9P1W9)
T6 construct: purchased Invitrogen (Life Technologies) SelectScreen Z'-LYTE
How it was run: as §1

[7] = target: T7, G3K3B (G3K3 beta) (Homo sapiens, UniProt P49841)
T7 construct: purchased Invitrogen (Life Technologies) SelectScreen Z'-LYTE
T7 sequence (P49841 whole entry): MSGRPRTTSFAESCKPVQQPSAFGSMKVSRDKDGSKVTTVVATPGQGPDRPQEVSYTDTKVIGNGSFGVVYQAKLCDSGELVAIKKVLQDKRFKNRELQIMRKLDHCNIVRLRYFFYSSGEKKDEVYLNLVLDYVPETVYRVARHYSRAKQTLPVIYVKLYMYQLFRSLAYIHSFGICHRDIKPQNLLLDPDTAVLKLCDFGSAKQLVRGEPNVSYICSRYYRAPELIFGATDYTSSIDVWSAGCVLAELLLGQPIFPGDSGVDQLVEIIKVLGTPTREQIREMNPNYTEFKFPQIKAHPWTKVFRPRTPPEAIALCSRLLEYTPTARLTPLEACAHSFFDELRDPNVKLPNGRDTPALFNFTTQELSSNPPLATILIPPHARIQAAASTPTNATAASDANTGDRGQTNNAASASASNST
How it was run: as §1

[8] = target: T8, ERBB4 (HER4) (Homo sapiens, UniProt Q15303)
T8 construct: purchased Invitrogen (Life Technologies) SelectScreen Z'-LYTE
How it was run: as §1

[9] = target: T9, PDK1 Direct (Homo sapiens, UniProt O15530)
T9 construct: purchased Invitrogen (Life Technologies) SelectScreen Z'-LYTE
T9 sequence (O15530 1-556): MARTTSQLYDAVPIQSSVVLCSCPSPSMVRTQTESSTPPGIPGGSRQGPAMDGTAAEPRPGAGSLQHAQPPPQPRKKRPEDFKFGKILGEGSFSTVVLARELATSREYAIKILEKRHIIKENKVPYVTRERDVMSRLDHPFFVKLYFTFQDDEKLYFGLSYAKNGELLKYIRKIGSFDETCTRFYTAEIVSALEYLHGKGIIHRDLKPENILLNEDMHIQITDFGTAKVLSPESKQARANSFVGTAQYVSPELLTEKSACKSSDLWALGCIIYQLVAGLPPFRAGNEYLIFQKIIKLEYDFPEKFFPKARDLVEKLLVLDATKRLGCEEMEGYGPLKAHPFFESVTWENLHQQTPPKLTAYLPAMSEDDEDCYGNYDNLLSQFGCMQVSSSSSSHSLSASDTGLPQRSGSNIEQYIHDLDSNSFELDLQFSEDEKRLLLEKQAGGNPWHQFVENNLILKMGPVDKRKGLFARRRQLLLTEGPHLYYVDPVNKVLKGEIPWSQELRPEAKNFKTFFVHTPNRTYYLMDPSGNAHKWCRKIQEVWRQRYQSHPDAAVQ
How it was run: as §1

[10] = target: T10, JAK3 (Homo sapiens, UniProt P52333)
T10 construct: purchased Invitrogen (Life Technologies) SelectScreen Z'-LYTE
T10 sequence (P52333 1-1124): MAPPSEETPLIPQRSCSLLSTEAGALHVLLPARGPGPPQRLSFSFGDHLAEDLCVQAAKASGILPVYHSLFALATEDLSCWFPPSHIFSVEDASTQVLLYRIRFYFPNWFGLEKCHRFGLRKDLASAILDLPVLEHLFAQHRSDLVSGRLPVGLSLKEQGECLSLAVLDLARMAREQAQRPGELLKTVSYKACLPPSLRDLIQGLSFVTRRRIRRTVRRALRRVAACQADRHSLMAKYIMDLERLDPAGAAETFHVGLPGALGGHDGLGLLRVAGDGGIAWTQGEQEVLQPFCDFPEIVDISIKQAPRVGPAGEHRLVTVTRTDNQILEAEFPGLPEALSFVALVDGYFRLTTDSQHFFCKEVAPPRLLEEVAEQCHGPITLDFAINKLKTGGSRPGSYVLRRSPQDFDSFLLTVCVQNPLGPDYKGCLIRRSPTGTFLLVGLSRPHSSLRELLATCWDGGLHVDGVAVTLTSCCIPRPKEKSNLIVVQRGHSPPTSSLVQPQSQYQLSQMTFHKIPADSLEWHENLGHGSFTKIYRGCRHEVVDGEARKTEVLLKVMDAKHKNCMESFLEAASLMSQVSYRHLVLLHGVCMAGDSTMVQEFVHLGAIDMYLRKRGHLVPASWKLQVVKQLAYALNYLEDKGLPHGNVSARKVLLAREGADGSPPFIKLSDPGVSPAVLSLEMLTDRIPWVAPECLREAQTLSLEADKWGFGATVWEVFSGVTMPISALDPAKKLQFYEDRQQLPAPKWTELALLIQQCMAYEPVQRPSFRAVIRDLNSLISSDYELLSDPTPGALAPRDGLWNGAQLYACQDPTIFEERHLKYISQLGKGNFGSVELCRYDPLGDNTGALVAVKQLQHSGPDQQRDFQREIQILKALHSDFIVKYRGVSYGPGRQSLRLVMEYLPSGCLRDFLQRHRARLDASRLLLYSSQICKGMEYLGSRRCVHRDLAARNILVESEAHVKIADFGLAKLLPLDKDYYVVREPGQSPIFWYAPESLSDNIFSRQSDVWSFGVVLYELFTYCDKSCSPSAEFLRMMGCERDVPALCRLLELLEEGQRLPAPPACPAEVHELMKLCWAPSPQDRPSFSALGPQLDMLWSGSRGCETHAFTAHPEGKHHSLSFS
How it was run: as §1

[11] = target: T11, SPHK1 (Homo sapiens, UniProt Q9NYA1)
T11 construct: purchased Invitrogen (Life Technologies) SelectScreen Z'-LYTE
T11 sequence (Q9NYA1 whole entry): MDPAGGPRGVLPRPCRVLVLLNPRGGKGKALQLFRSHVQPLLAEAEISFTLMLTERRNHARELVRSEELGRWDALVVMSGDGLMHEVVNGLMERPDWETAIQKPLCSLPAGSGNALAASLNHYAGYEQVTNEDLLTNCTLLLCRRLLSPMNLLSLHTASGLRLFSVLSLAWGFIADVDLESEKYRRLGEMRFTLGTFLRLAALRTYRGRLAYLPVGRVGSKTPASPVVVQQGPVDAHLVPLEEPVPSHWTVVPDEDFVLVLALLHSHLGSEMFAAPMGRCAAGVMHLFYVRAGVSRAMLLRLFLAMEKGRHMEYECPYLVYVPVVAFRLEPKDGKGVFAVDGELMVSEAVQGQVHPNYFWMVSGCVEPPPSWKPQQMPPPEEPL
How it was run: as §1

Row | SMILES | % inhibition of activity [1] [%] | % inhibition of activity [2] [%] | % inhibition of activity [3] [%] | % inhibition of activity [4] [%] | % inhibition of activity [5] [%] | % inhibition of activity [6] [%] | % inhibition of activity [7] [%] | % inhibition of activity [8] [%] | % inhibition of activity [9] [%] | % inhibition of activity [10] [%] | % inhibition of activity [11] [%]
1 | CCn1c(=O)c(-c2ccc(-c3noc(C)n3)cc2Cl)cc2cnc(Nc3ccc(C4CCN(C)CC4)cc3)nc21 [Frax716] | 8 | 0 | 17 | −1 | 97 | 1 | 14 | 77 | 15 | 3 | −3
2 | CCn1c(=O)c(-c2ccc(-c3cncc(C)n3)cc2Cl)cc2cnc(NCCC3CCN(C)CC3)nc21 [Frax1036] | 3 | 0 | 7 | 2 | 41 | 3 | 0 | 0 | 0 | 0 | 0
3 | Cc1nc(Nc2[nH]nc3c2CN(C(=O)N[C@H](CN(C)C)c2ccccc2)C3(C)C)c2sccc2n1 [PF3758309, reference compound] | 10 | 0 | 99 | 8 | 20 | 4 | 77 | 2 | 67 | 10 | 4
